According to PMC10342533, “Novel Tetrazole Derivatives Targeting Tubulin Endowed with Antiproliferative Activity against Glioblastoma Cells” (International Journal of Molecular Sciences, 2023):

Tests used:
[1] = tested on: T98G (temozolomide resistant glioblastoma); experiment: Cell growth inhibition, MTT assay, T98G; assay type: cell-based; conditions: Homo sapiens
Method: (§1) The ability of the synthesized compounds to inhibit the cell proliferation of human cancer cell lines was assayed by measuring cell viability through the use of the MTT method 72 h after treatment. For this purpose, representative cell lines of the most frequent kinds of cancer were selected, including the following: HeLa (cervix epithelioid carcinoma), MCF7 (breast adenocarcinoma), U87 MG (glioblastoma), T98G (temozolomide resistant glioblastoma), HepG2 (hepatocellular carcinoma), HCT8 (colorectal carcinoma), and HT-29 (colon adenocarcinoma).
(§2) The cell lines were obtained from ATTC (Manassas, VA, USA). […] The cells were periodically tested for Mycoplasma infection by using a MycoAlert kit (Lonza, Norwest, Australia), and only Mycoplasma-free cells were used in the experiments.
(§3) Then, every compound was added (10 µL/well) to a final concentration of 10 µM. Untreated cells were used as negative controls. The antiproliferative activity of compounds was measured 72 h after drug exposure through the MTT assay. […] For this purpose, compounds were used at different concentrations, ranging from 10^−10 to 10^−2 M. Measurements were performed in triplicate, and each experiment was repeated three times. The IC50 values were determined using Origin software (version 9.6, OriginLab, Washington, DC, USA).

[2] = tested on: HT-29 (colon adenocarcinoma); experiment: Cell growth inhibition, MTT assay, HT-29, without or with verapamil; assay type: cell-based, human
Method: as §1
Multidrug resistance (MDR) proteins, especially P-glycoprotein (P-gp), are often involved in resistance mechanisms affecting tubulin-binding drugs that are frequently related to the failure of cancer therapies. […] These pumps are also part of the blood–brain barrier.
as §2, §3

U87 MG cells = experiment: Cell cycle analysis by flow cytometry (PI), U87 MG; assay type: cell-based, human; conditions: 100 nM
Method: To assess how tubulin polymerization inhibition and the effects on the microtubule network affect the cell cycle, flow cytometry experiments were performed on HeLa, MCF7, and U87 MG cells 24, 48, and 72 h after treatments with compounds 10, 12, and 14 at 100 nM using propidium iodide (PI) for DNA staining and untreated cells as the negative control.
HeLa, MCF7, or U87 MG cells were seeded in 6-well plates (8·10^4 cells/mL, 2 mL/well) and incubated in complete DMEM Medium (see above) at 37 °C and 5% CO2 atmosphere for 24 h. Then, the cells were treated with selected compounds (10, 12, or 14) at 100 nM, and untreated cells were used as negative controls. Cells were collected 24, 48, or 72 h following treatment and fixed overnight in ethanol/PBS (7:3) at 4 °C. After two washes with PBS, cells were suspended in PBS and incubated in darkness overnight with 0.2 mg/mL RNase A (Sigma-Aldrich, St. Louis, MO, USA), 50 µg/mL propidium iodide (Sigma-Aldrich, St. Louis, MO, USA), and Triton 10x at room temperature. A BD Accuri™ C6 Plus Flow Cytometer (BD Biosciences, Franklin Lakes, NJ, USA) cytometer was used to analyze the samples, and BD Accuri™ C6 Software (version 1.0.264.21) was used for data analysis.

[3] = Homo sapiens, HT-29, 72 h after drug exposure
[4] = Homo sapiens, HT-29, mean ± SD, Table S1
[5] = mean ± SD, Table S1, in the presence of verapamil (10 µM)

IC50 ([1]; 72 h, 72 h after drug exposure) [nM] | IC50 [2, 3] [nM] | IC50 [2, 4] [nM] | IC50 [2, 5] [nM] | IC50 ([1]; mean ± SD, Table S1) [nM] | Structure (SMILES) | G0/G1 population (U87 MG cells; 24 h) [% Cells] | G2/M population (U87 MG cells; 24 h) [% Cells] | S population (U87 MG cells; 24 h) [% Cells] | SubG0/G1 population (U87 MG cells; 24 h) [% Cells] | G0/G1 population (U87 MG cells; 48 h) [% Cells] | G2/M population (U87 MG cells; 48 h) [% Cells] | S population (U87 MG cells; 48 h) [% Cells] | SubG0/G1 population (U87 MG cells; 48 h) [% Cells] | G0/G1 population (U87 MG cells; 72 h) [% Cells] | G2/M population (U87 MG cells; 72 h) [% Cells] | S population (U87 MG cells; 72 h) [% Cells]
25 | 59 | 59.4 ± 0.5 | 61.4 ± 0.4 |  | CSc1cc(-c2nnnn2-c2ccc3c(ccn3C)c2)cc(Cl)n1 [Compound 10, 5-(5-(2-chloro-6-(methylsulfanyl)pyridin-4-yl)-1H-tetrazol-1-yl)-1-methyl-1H-indole] | 21.1 | 47.8 | 8.3 | 23.5 | 11.0 | 31.6 | 9.0 | 49.2 | 10.5 | 17.0 | 2.9
19 | 31 | 31.1 ± 0.3 | 33.1 ± 0.4 |  | CSc1cc(-c2nnnn2-c2ccc3c(c2)c(C=O)cn3C)cc(Cl)n1 [Compound 14, 5-(5-(2-chloro-6-(methylsulfanyl)pyridin-4-yl)-1H-tetrazol-1-yl)-1-methyl-1H-indole-3-carbaldehyde] | 23.7 | 41.3 | 8.5 | 27.2 | 12.5 | 32.1 | 10.6 | 45.4 | 11.1 | 9.6 | 6.9
26 | 51 | 51.3 ± 0.3 | 56.5 ± 0.5 | 26.2 ± 0.2 | Cn1cc(C=O)c2cc(-n3nnnc3-c3cc(Cl)nc(Cl)c3)ccc21 [Compound 12, 5-(5-(2,6-dichloropyridin-4-yl)-1H-tetrazol-1-yl)-1-methyl-1H-indole-3-carbaldehyde] | 27.3 | 37.8 | 9.6 | 26.1 | 11.9 | 27.4 | 10.3 | 51.1 | 12.2 | 10.0 | 7.8
